Results as given in patent publication US20100004238A1, “FUSED HETEROCYCLIC COMPOUND” (TAKEDA PHARMACEUTICAL COMPANY LIMITED, priority 2006, published 2010).

What was measured:
[1] = target: T1, EGFR intracellular domain (EGFR kinase) (Homo sapiens, UniProt P00533); experiment: Determination of EGFR kinase inhibitory activity; assay type: biochemical; conditions: compound at 1.0 μM, poly-Glu:Tyr (4:1) substrate, [γ-32P]ATP; for inhibition at 1 µM: read-out: inhibitory rate (%) at 1.0 μM
T1 construct: made in house; host or cells: SF-21 insect cells infected with recombinant baculovirus BAC-EGFR
Description: Human EGFR gene was cloned by RT-PCR using total RNA prepared from A431 cells as a template. The primer used for RT-PCR was prepared in consideration of the information of nucleotide sequence (Genbank Accession No. X00588) of EGFR gene by adding a nucleotide sequence encoding DYKDDDD peptide and a restriction enzyme recognition sequence to a nucleotide sequence (corresponding to 2191-3819 of Genbank Accession No. X00588 as a base, 669-1210 amino acids of Genbank Accession No. NP_005219 as a protein) encoding the EGFR intracellular domain region such that the protein contains an N-terminal DYKDDDD peptide tag. The primer nucleotide sequence is shown below.
(§1) SF-21 cells were sown at 1×10^6 cells/mL in Sf-900II SFM medium (1 L, Invitrogen) containing 10% fetal bovine serum (trace), 50 mg/L gentamicin (Invitrogen) and 0.1% Pluronic F-68 (Invitrogen), and shaking culture was performed using a 2 L volume Erlenmeyer flask at 27° C., 100 rpm. After culturing for 24 hrs, recombinant baculovirus BAC-EGFR (13.4 mL) was added, and the mixture was further cultured for 3 days. The culture medium was centrifuged at 2,000 rpm for 5 min to give virus-infected cells. The infected cells were washed with a phosphate buffered saline (Invitrogen), centrifuged under the same conditions, and the cells were preserved at −80° C. The cryopreserved cells were thawed in ice, suspended in buffer A (50 mM Tris buffer (30 mL, pH 7.4) containing 20% glycerol, 0.15 M NaCl) supplemented with Complete Protease Inhibitor (Boehringer), and ruptured 3 times with a Polytron homogenizer (Kinematica) at 20,000 rpm for 30 sec. The ruptured solution was clarified by centrifugation at 40,000 rpm for 30 min, and filtered with a 0.45 μm filter. The filtrate was passed through a column packed with Anti-FLAG M2 Affinity Gel (4 mL, Sigma-Aldrich) at a flow rate of about 0.5 mL/min. The column was washed with buffer A, and eluted with buffer A containing 100 μg/mL of FLAG peptide. The eluent was concentrated with Vivaspin 20 (Vivascience) having a molecular weight cut off of 30K. The concentrate was purified by gel filtration using Hi Load 16/60 Superdex 200 pg (GE Healthcare Bioscience) equilibrated with buffer A. The fractions containing EGFR intracellular domain were collected and cryopreserved at −80° C.
(§2) EGFR kinase reaction was performed using a 96 well plate. As a buffer for kinase reaction, a buffer having a composition of 50 mM Tris-HCl (pH 7.5), 5 mM MnCl2, 2 mM dithiothreitol, 0.01% Tween-20 was used. The compound of the present invention was dissolved in dimethyl sulfoxide (DMSO), and diluted with the kinase reaction buffer so that DMSO concentration would be 0.1% during kinase reaction. This compound solution (10 μL) was mixed with a kinase reaction buffer (20 μL) containing EGFR intracellular domain (0.625 μg/mL) obtained in Experimental Example 2B and polypeptide substrate poly-Glu:Tyr (4:1) (Sigma Ltd., 12.5 μg/mL), and the mixture was stood at room temperature for 5 min. Then, a kinase reaction buffer (20 μL) containing 125 μM ATP and 45 μCi/mL [γ-^32P]ATP was added, and the kinase reaction was initiated with 50 μL of the final reaction mixture. A kinase reaction was performed at room temperature for 10 min, and the kinase reaction was quenched by addition of 20% TCA solution (50 μL). The mixture after completion of the reaction was stood at room temperature for 30 min, and acid insoluble fractions in the mixture after completion of the reaction were collected in a 96 well GF/C filter plate (PerkinElmer) using a cell harvester (PerkinElmer). Thereafter, the filter containing the acid insoluble fractions was washed with 3% phosphoric acid solution. After washing, the filter plate was dried at 45° C. for 60 min, and 25 μL of MicroScinti 0 (PerkinElmer) was added. The radioactivity was measured using TopCount (PerkinElmer).
EGFR kinase inhibitory rate (%) of the test compound was calculated by the following formula: […]

[2] = system: human breast cancer cell BT-474; experiment: Inhibitory action on breast cancer cell BT-474 proliferation in vitro; assay type: cell-based; conditions: 120 h, BT-474 cells, cultured for 5 days with compound, SRB protein content
Description: A suspension of human breast cancer cell BT-474 (100 μl (6,000 cells)) were plated in a 96-well microplate and cultured in an incubator (37° C., 5% carbon dioxide). On the following day, 100 μl of a solution of each test compound previously diluted serially in 2-fold, was added, and the cells were cultured for 5 days. After the culture medium containing the test compound was removed, the cells were washed and fixed with 50% trichloroacetic acid, after which a 0.4% (w/v) SRB dye solution (dissolved in 1% acetic acid) was added to stain as well as fix the cell protein (Skehan et al., Journal of the National Cancer Institute, Vol. 82, pp. 1107-1112, 1990). After washing with a 1% acetic acid solution, 100 μl of extract solution (10 mM, Tris buffer) was added to extract the dye and the absorbance was measured at a wavelength of 550 nm to quantify the amount of cells as protein content. Taking as 100% the protein content for the control group, which received no test compound solution, the ratio of the residual protein content for each treatment group was determined, and the compound concentration required to achieve 50% suppression of the residual cell content relative to the control (IC50 value) was calculated.

[3] = target: T2, HER2 intracellular domain (HER2 kinase) (Homo sapiens, UniProt P04626); experiment: Determination of HER2 kinase inhibitory activity; assay type: biochemical; conditions: compound at 1.0 μM, poly-Glu:Tyr (4:1) substrate, [γ-32P]ATP, read-out: inhibitory rate (%) at 1.0 μM
T2 construct: made in house; host or cells: SF-21 insect cells infected with recombinant baculovirus BAC-HER2
Description: Human HER2 gene was cloned by RT-PCR using total RNA prepared from MCF7 cells as a template. The primer used for RT-PCR was prepared in consideration of the information of nucleotide sequence (Genbank Accession No. M11730) of HER2 gene by adding a nucleotide sequence encoding DYKDDDD peptide and a restriction enzyme recognition sequence to a nucleotide sequence (corresponding to 2176-3918 of Genbank Accession No. M11730 as a base, 676-1255 amino acids of Genbank Accession No. NP_004439 as a protein) encoding the HER2 intracellular domain region such that the protein contains an N-terminal DYKDDDD peptide tag. The primer nucleotide sequence is shown below.
as §1, with “hr,” for “hrs,”, “BAC-HER2” for “BAC-EGFR”, “HER2” for “EGFR”
as §2, with “HER2 kinase reaction” for “EGFR kinase reaction”, “buffer […] containing HER2” for “buffer (20 μL) containing EGFR”, “mL) containing HER2 intracellular domain” for “μL) containing EGFR intracellular domain”, “Experimental Example 1B and polypeptide” for “Experimental Example 2B and polypeptide”, “TopCount (PerkinElmer). HER2 kinase inhibitory rate (%) of the test compound was calculated by the following formula: […]” for “TopCount (PerkinElmer).”

T1 sequence (P00533 669-1210): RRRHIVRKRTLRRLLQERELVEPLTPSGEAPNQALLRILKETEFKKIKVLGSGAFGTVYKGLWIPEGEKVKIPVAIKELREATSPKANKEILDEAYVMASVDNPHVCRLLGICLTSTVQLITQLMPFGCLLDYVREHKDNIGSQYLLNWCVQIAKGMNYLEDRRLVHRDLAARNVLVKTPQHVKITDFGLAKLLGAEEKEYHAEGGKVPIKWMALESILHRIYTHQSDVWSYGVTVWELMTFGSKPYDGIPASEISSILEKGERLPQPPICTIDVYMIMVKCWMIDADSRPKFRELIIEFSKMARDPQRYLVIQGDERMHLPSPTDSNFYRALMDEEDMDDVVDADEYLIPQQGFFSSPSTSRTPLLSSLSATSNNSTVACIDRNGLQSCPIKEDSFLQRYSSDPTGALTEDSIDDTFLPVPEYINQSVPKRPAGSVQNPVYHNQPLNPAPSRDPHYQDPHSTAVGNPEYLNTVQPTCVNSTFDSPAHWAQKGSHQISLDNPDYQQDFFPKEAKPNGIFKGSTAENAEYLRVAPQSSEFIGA
T2 sequence (P04626 676-1255): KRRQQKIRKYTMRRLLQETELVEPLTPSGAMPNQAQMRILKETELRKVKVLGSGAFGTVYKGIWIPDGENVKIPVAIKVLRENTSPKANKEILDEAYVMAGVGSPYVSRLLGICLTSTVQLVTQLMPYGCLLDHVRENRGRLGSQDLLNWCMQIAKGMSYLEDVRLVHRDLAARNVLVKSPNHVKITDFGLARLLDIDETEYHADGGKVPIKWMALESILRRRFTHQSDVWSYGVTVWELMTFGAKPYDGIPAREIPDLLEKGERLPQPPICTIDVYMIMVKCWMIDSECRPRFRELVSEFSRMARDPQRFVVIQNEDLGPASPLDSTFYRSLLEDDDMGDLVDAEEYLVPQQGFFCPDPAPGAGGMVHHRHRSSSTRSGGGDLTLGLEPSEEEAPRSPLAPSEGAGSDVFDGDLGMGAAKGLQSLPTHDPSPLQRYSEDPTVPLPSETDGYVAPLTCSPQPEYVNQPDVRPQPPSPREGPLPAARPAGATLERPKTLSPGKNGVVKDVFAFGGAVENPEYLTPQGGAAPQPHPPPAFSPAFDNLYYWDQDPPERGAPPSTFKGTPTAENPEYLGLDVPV

SMILES | inhibition at 1 µM [1] [%] | IC50 [2] [nM] | inhibition at 1 µM [3] [%] | inhibitory rate (%) at 1.0 μM ([1]; methanesulfonate, 1 µM) [%]
CN1C(=O)Cc2c(Oc3ccc(Nc4ncnc5ccn(CCO)c45)cc3Cl)cccc21 [Example 8, 4-(2-chloro-4-{[5-(2-hydroxyethyl)-5H-pyrrolo[3,2-d]pyrimidin-4-yl]amino}phenoxy)-1-methyl-1,3-dihydro-2H-indol-2-one] | 100 | < 100 |  | 
Cn1ccc2ncnc(Nc3ccc(Oc4cccc5[nH]ccc45)c(Cl)c3)c21 [Example 22, N-[3-chloro-4-(1H-indol-4-yloxy)phenyl]-5-methyl-5H-pyrrolo[3,2-d]pyrimidin-4-amine] | 98 | < 100 |  | 
CS(=O)(=O)CC(=O)NCCn1ccc2ncnc(Nc3ccc(Oc4cccc5c4CC(=O)N5)c(Cl)c3)c21 [Example 6, N-{2-[4-({3-chloro-4-[(2-oxo-2,3-dihydro-1H-indol-4-yl)oxy]phenyl}amino)-5H-pyrrolo[3,2-d]pyrimidin-5-yl]ethyl}-2-(methylsulfonyl)acetamide] | 100 | < 100 |  | 
OCCOCCn1ccc2ncnc(Nc3ccc(Oc4cccc5[nH]ccc45)c(Cl)c3)c21 [Example 16, 2-[2-(4-{[3-chloro-4-(1H-indol-4-yloxy)phenyl]amino}-5H-pyrrolo[3,2-d]pyrimidin-5-yl)ethoxy]ethanol] | 99 |  | 100 | 
CS(=O)(=O)CC(=O)NCCn1ccc2ncnc(Nc3ccc(Oc4ccc5ccsc5c4)c(Cl)c3)c21 [Example 60, N-[2-(4-{[4-(1-benzothiophen-6-yloxy)-3-chlorophenyl]amino}-5H-pyrrolo[3,2-d]pyrimidin-5-yl)ethyl]-2-(methylsulfonyl)acetamide] | 99 |  |  | 
CC(=O)NCCn1ccc2ncnc(Nc3ccc(Oc4cccc5sccc45)c(Cl)c3)c21 [Example 99, N-[2-(4-{[4-(1-benzothiophen-4-yloxy)-3-chlorophenyl]amino}-5H-pyrrolo[3,2-d]pyrimidin-5-yl)ethyl]acetamide] | 98 |  |  | 
CC(=O)NCCn1ccc2ncnc(Nc3ccc(Oc4cccc5sccc45)c(Cl)c3)c21 [Example 119, N-[2-(4-{[4-(1-benzothiophen-4-yloxy)-3-chlorophenyl]amino}-5H-pyrrolo[3,2-d]pyrimidin-5-yl)ethyl]acetamide methanesulfonate] |  |  |  | 99
CC(C)(CO)C(=O)NCCn1ccc2ncnc(Nc3ccc(Oc4ccc5ccsc5c4)c(Cl)c3)c21 [Example 53, N-[2-(4-{[4-(1-benzothiophen-6-yloxy)-3-chlorophenyl]amino}-5H-pyrrolo[3,2-d]pyrimidin-5-yl)ethyl]-3-hydroxy-2,2-dimethylpropanamide] | 98 |  |  | 
